# Where “and” joins values, the source holds several entries; their conditions need not be identical. Equal entries are not always repeated.
# Tests used:
# Assay in all cases: BioPrint Profile Panel
# Format in all cases: binding
# [1] = biological target: T1, 5-HT transporter (Homo sapiens, UniProt P31645); settings: Antagonist, read-out: % of specific inhibition
# T1 construct: purchased Eurofins Discovery (Cerep) BioPrint Profile Panel
# From the text: (§1) The BioPrint® Profile Panel service offered by Eurofins Discovery (Poitiers, France) was chosen to perform selectivity analysis.
# [2] = biological target: T2, 5-HT1A (Homo sapiens, UniProt P08908); settings: Agonist, Receptor, read-out: % of specific inhibition
# T2 construct: purchased Eurofins Discovery (Cerep) BioPrint Profile Panel
# From the text: as §1
# [3] = biological target: T3, 5-HT2A (Homo sapiens, UniProt P28223); settings: Agonist, Receptor, read-out: % of specific inhibition
# T3 construct: purchased Eurofins Discovery (Cerep) BioPrint Profile Panel
# From the text: as §1
# [4] = biological target: T4, 5-HT2B (Homo sapiens, UniProt P41595); settings: Agonist, Receptor
# T4 construct: purchased Eurofins Discovery (Cerep) BioPrint Profile Panel
# From the text: as §1
# [5] = biological target: T5, 5-HT2C (Homo sapiens, UniProt P28335); settings: Agonist, Receptor, read-out: % of specific inhibition
# T5 construct: purchased Eurofins Discovery (Cerep) BioPrint Profile Panel
# From the text: as §1
# [6] = biological target: T6, 5-HT6 (Homo sapiens, UniProt P50406); settings: Agonist, Receptor, read-out: % of specific inhibition
# T6 construct: purchased Eurofins Discovery (Cerep) BioPrint Profile Panel
# From the text: as §1
# [7] = biological target: T7, 5-HT7 (Homo sapiens, UniProt P34969); settings: Agonist, Receptor, read-out: % of specific inhibition
# T7 construct: purchased Eurofins Discovery (Cerep) BioPrint Profile Panel
# From the text: as §1
# [8] = biological target: T8, A2A (Homo sapiens, UniProt P29274); settings: Agonist, Receptor
# T8 construct: purchased Eurofins Discovery (Cerep) BioPrint Profile Panel
# From the text: as §1
# [9] = biological target: T9, AT1 (Homo sapiens, UniProt P30556); settings: Antagonist, Receptor, read-out: % of specific inhibition
# T9 construct: purchased Eurofins Discovery (Cerep) BioPrint Profile Panel
# From the text: as §1
# [10] = biological target: T10, BB3 (Homo sapiens, UniProt P32247); settings: Agonist, Receptor, read-out: % of specific inhibition
# T10 construct: purchased Eurofins Discovery (Cerep) BioPrint Profile Panel
# From the text: as §1
# [11] = system: BZD; settings: 10 μM, Agonist, Ion Channel
# From the text: as §1
# [12] = biological target: T11, CB1 (Homo sapiens, UniProt P21554); settings: Agonist, Receptor, read-out: % of specific inhibition
# T11 construct: purchased Eurofins Discovery (Cerep) BioPrint Profile Panel
# From the text: as §1
# [13] = biological target: T12, CB2 (Homo sapiens, UniProt P34972); settings: Agonist, Receptor, read-out: % of specific inhibition
# T12 construct: purchased Eurofins Discovery (Cerep) BioPrint Profile Panel
# From the text: as §1
# [14] = biological target: T13, CCK1 (Homo sapiens, UniProt P32238); settings: Agonist, Receptor, read-out: % of specific inhibition
# T13 construct: purchased Eurofins Discovery (Cerep) BioPrint Profile Panel
# From the text: as §1
# [15] = biological target: T14, CCK2 (CCKB) (Homo sapiens, UniProt P32239); settings: Agonist, Receptor, read-out: % of specific inhibition
# T14 construct: purchased Eurofins Discovery (Cerep) BioPrint Profile Panel
# From the text: as §1
# [16] = biological target: T15, CCR2 (Homo sapiens, UniProt P41597); settings: Agonist, Receptor, read-out: % of specific inhibition
# T15 construct: purchased Eurofins Discovery (Cerep) BioPrint Profile Panel
# From the text: as §1
# [17] = system: Ca2+ channel (diltiazem site); settings: 10 μM; Antagonist (diltiazem site); Ion Channel
# From the text: as §1
# [18] = system: Ca2+ channel (verapamil site); settings: 10 μM; Antagonist (verapamil site); Ion Channel
# From the text: as §1
# [19] = system: Ca2+ channel; settings: 10 μM, Antagonist, Ion Channel
# From the text: as §1
# [20] = biological target: T16, CysLT1 (LTD4) (Homo sapiens, UniProt Q9Y271); settings: Agonist, Receptor, read-out: % of specific inhibition
# T16 construct: purchased Eurofins Discovery (Cerep) BioPrint Profile Panel
# From the text: as §1
# [21] = biological target: T17, EP2 (Homo sapiens, UniProt P43116); settings: Agonist, Receptor, read-out: % of specific inhibition
# T17 construct: purchased Eurofins Discovery (Cerep) BioPrint Profile Panel
# From the text: as §1
# [22] = biological target: T18, ETA (Homo sapiens, UniProt P25101); settings: Agonist, Receptor, read-out: % of specific inhibition
# T18 construct: purchased Eurofins Discovery (Cerep) BioPrint Profile Panel
# From the text: as §1
# [23] = biological target: T19, GABAB(1b) (Homo sapiens, UniProt Q9UBS5); settings: Antagonist, Receptor, read-out: % of specific inhibition
# T19 construct: purchased Eurofins Discovery (Cerep) BioPrint Profile Panel
# From the text: as §1
# [24] = biological target: T20, H2 (Homo sapiens, UniProt P25021); settings: Antagonist, Receptor, read-out: % of specific inhibition
# T20 construct: purchased Eurofins Discovery (Cerep) BioPrint Profile Panel
# From the text: as §1
# [25] = biological target: T21, H3 (Homo sapiens, UniProt Q9Y5N1); settings: Agonist, Receptor, read-out: % of specific inhibition
# T21 construct: purchased Eurofins Discovery (Cerep) BioPrint Profile Panel
# From the text: as §1
# [26] = biological target: T22, M2 (Homo sapiens, UniProt P08172); settings: Antagonist, Receptor, read-out: % of specific inhibition
# T22 construct: purchased Eurofins Discovery (Cerep) BioPrint Profile Panel
# From the text: as §1
# [27] = biological target: T23, MAO-A (Rattus norvegicus, UniProt P21396); settings: Antagonist, Non-Kinase Enzyme, read-out: % of specific inhibition
# T23 construct: purchased Eurofins Discovery (Cerep) BioPrint Profile Panel
# From the text: as §1
# [28] = system: MT3 (ML2); settings: 10 μM; Agonist; Receptor
# From the text: as §1
# [29] = biological target: T24, N neuronal α4β2 (Homo sapiens, UniProt P17787+P43681); settings: Agonist, Receptor, read-out: % of specific inhibition
# T24 construct: purchased Eurofins Discovery (Cerep) BioPrint Profile Panel
# From the text: as §1
# [30] = biological target: T25, NK1 (Homo sapiens, UniProt P25103); settings: Agonist, Receptor, read-out: % of specific inhibition
# T25 construct: purchased Eurofins Discovery (Cerep) BioPrint Profile Panel
# From the text: as §1
# [31] = biological target: T26, NK2 (Homo sapiens, UniProt P21452); settings: Agonist, Receptor, read-out: % of specific inhibition
# T26 construct: purchased Eurofins Discovery (Cerep) BioPrint Profile Panel
# From the text: as §1
# [32] = system: NMDA; settings: 10 μM; Antagonist; Ion Channel
# From the text: as §1
# [33] = biological target: T27, PAF (Homo sapiens, UniProt P25105); settings: Agonist, Receptor, read-out: % of specific inhibition
# T27 construct: purchased Eurofins Discovery (Cerep) BioPrint Profile Panel
# From the text: as §1
# [34] = system: PCP; settings: 10 μM; Antagonist; Ion Channel
# From the text: as §1
# [35] = system: SKCa channel; settings: 10 μM; Antagonist; Ion Channel
# From the text: as §1
# [36] = biological target: T28, UT (Homo sapiens, UniProt Q9UKP6); settings: Agonist, Receptor, read-out: % of specific inhibition
# T28 construct: purchased Eurofins Discovery (Cerep) BioPrint Profile Panel
# From the text: as §1
# [37] = biological target: T29, VPAC1 (Homo sapiens, UniProt P32241); settings: Agonist, Receptor, read-out: % of specific inhibition
# T29 construct: purchased Eurofins Discovery (Cerep) BioPrint Profile Panel
# From the text: as §1
# [38] = biological target: T30, Y1 (Homo sapiens, UniProt P25929); settings: Agonist, Receptor, read-out: % of specific inhibition
# T30 construct: purchased Eurofins Discovery (Cerep) BioPrint Profile Panel
# From the text: as §1
# [39] = biological target: T31, glucagon (Homo sapiens, UniProt P47871); settings: Agonist, Receptor, read-out: % of specific inhibition
# T31 construct: purchased Eurofins Discovery (Cerep) BioPrint Profile Panel
# From the text: as §1
# [40] = system: glycine; settings: 10 μM; Antagonist; Ion Channel
# From the text: as §1
# [41] = biological target: T32, norepinephrine transporter (Homo sapiens, UniProt P23975); settings: Antagonist, read-out: % of specific inhibition
# T32 construct: purchased Eurofins Discovery (Cerep) BioPrint Profile Panel
# From the text: as §1
# [42] = biological target: T33, µ (MOP) (Homo sapiens, UniProt P35372); settings: Agonist, Receptor, read-out: % of specific inhibition
# T33 construct: purchased Eurofins Discovery (Cerep) BioPrint Profile Panel
# From the text: as §1
# [43] = biological target: T34, α1A (Homo sapiens, UniProt P35348); settings: Antagonist, Receptor, read-out: % of specific inhibition
# T34 construct: purchased Eurofins Discovery (Cerep) BioPrint Profile Panel
# From the text: as §1
# [44] = biological target: T35, α2B (Homo sapiens, UniProt P18089); settings: Antagonist, Receptor, read-out: % of specific inhibition
# T35 construct: purchased Eurofins Discovery (Cerep) BioPrint Profile Panel
# From the text: as §1
# [45] = read-out: % Inhibition of Control Specific Binding
# T4 sequence (P41595 whole entry): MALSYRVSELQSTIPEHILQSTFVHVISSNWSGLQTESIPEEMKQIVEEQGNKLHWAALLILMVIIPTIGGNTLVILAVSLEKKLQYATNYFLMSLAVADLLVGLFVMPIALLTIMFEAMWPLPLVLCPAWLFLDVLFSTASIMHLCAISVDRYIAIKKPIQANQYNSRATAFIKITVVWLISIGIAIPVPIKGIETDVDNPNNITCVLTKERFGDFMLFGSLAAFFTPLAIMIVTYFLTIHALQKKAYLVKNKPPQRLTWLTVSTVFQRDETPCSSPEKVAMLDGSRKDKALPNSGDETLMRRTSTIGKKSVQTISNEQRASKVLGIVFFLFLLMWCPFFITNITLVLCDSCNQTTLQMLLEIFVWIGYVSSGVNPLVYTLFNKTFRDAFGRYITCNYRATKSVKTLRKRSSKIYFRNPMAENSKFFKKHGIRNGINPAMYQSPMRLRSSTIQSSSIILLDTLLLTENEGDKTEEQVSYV
# T8 sequence (P29274 whole entry): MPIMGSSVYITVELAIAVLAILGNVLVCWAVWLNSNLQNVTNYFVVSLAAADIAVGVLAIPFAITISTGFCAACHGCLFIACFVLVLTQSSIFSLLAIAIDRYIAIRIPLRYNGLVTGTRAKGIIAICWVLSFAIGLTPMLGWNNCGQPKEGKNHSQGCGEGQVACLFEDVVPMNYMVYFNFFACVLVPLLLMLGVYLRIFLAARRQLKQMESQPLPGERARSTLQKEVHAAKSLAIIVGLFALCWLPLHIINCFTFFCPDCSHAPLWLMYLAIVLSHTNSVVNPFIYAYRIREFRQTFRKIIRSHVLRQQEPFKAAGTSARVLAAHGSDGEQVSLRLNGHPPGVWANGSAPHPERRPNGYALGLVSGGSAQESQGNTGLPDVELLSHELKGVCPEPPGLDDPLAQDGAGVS
# T27 sequence (P25105 whole entry): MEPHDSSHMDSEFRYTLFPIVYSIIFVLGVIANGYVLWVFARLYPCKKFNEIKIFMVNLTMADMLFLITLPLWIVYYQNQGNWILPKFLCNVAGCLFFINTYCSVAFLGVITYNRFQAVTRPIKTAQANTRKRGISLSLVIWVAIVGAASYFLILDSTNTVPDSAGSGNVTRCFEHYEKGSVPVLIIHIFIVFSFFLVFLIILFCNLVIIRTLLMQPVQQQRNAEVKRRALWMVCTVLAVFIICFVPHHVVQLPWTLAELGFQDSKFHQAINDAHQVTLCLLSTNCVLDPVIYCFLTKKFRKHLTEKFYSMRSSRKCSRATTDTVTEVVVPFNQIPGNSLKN
# T21 sequence (Q9Y5N1 whole entry): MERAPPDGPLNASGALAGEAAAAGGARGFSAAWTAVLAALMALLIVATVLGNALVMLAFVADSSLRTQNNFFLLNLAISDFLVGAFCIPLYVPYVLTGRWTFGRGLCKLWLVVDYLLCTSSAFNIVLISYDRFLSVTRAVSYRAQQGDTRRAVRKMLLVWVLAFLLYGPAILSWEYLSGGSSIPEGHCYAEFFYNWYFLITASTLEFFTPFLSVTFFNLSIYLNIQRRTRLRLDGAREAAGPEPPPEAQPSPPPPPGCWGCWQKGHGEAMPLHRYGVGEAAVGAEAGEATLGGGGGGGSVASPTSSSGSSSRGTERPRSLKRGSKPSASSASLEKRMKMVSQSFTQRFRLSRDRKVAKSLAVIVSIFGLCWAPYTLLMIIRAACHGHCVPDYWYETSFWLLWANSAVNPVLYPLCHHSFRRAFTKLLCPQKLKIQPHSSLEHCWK
# T31 sequence (P47871 26-477): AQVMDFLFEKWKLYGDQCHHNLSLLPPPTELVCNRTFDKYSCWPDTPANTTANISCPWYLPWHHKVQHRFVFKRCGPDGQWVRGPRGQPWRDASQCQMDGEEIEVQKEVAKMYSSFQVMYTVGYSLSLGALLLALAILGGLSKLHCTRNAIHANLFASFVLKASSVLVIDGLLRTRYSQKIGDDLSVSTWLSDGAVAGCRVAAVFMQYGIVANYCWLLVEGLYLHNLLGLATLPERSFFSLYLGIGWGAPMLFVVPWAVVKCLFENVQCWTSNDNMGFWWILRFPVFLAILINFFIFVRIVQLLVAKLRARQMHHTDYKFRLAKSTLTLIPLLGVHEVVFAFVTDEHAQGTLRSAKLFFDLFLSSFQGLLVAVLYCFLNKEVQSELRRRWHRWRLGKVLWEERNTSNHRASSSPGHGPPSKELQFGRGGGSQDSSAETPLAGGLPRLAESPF
# T15 sequence (P41597 whole entry): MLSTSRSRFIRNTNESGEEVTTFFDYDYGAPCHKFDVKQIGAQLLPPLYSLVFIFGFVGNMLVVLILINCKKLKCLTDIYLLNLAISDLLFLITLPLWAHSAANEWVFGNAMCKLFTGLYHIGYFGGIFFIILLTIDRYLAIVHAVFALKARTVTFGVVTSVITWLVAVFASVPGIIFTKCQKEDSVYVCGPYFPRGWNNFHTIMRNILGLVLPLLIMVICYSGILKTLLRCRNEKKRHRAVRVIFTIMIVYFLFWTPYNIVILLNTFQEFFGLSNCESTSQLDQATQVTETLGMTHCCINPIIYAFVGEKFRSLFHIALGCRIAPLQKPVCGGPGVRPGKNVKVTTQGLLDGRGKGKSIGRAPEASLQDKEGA
# T28 sequence (Q9UKP6 whole entry): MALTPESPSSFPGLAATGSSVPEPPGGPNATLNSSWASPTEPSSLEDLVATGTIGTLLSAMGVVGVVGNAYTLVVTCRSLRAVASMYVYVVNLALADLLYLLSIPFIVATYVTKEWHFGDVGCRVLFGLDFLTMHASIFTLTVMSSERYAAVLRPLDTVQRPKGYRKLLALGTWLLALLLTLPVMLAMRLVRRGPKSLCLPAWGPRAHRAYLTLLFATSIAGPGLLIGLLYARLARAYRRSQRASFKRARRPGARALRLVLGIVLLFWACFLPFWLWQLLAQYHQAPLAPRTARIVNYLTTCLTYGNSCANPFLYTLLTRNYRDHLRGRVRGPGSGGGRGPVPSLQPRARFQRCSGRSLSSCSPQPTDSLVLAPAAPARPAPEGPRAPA
# T6 sequence (P50406 whole entry): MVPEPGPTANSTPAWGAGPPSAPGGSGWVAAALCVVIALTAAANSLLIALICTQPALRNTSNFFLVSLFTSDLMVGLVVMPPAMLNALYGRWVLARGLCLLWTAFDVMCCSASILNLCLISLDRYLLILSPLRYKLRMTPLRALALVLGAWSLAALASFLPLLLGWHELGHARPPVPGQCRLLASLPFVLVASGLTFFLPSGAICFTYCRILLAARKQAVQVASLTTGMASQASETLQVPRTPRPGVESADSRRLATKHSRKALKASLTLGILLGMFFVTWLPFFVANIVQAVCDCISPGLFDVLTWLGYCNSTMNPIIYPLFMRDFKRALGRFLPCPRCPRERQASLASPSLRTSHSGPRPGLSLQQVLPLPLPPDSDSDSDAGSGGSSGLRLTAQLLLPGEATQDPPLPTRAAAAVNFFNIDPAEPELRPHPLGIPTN
# T24 sequence (P43681 29-627 limits assumed): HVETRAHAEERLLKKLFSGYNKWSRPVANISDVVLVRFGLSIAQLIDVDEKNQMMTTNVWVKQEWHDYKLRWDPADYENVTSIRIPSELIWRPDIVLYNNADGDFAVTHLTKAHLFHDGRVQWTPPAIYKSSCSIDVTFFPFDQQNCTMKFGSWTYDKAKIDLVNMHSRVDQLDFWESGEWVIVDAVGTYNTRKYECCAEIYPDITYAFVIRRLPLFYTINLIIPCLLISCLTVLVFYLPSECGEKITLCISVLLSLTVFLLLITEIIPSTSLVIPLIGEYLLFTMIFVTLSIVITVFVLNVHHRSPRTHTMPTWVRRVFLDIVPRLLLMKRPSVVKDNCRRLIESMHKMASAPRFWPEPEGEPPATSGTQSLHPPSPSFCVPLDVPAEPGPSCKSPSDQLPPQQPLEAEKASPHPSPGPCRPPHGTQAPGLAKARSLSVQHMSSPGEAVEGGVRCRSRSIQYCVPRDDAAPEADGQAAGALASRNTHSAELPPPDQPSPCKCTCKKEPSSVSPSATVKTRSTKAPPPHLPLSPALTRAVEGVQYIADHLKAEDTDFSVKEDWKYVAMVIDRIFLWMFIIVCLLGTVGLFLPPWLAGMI
# T24 sequence (P17787 26-502): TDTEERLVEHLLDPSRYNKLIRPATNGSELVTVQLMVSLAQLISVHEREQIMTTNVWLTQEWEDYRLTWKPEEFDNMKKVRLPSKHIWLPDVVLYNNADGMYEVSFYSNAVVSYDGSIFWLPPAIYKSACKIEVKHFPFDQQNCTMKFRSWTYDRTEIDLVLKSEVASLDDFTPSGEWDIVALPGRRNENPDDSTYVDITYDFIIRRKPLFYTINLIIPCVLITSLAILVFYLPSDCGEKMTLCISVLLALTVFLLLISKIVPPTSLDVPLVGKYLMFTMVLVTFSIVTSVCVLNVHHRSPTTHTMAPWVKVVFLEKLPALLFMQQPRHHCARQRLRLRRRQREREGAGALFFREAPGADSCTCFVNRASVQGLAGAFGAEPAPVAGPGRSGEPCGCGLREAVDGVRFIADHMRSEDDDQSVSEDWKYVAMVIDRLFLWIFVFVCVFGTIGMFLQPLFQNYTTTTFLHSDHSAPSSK
# T7 sequence (P34969 whole entry): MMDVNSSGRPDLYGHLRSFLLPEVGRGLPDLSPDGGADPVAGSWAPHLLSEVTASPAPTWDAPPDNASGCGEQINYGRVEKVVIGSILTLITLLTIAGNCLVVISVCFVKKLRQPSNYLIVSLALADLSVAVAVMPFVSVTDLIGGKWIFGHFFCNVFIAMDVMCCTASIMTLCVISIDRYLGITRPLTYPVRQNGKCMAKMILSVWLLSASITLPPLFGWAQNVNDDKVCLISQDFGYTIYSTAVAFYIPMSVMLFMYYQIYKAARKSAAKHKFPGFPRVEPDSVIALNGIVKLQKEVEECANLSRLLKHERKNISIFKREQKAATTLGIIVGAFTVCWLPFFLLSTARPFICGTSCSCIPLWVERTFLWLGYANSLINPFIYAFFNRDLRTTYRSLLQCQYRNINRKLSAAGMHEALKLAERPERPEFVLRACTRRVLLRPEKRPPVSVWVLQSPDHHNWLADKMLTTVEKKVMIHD
compound,measurement,setting,value
"O=c1cc(-c2ccccc2)oc2c(O)c(O)ccc12 [7,8-DHF, 7,8-dihydroxyflavone]",inhibition at 10 µM,[1],-4%
same,inhibition at 10 µM,[2],-26%
same,inhibition at 10 µM,[3],-4%
same,% Inhibition of Control Specific Binding,[4]; 10 μM,50.2%
same,inhibition at 10 µM,[4]; [45],50%
same,inhibition at 10 µM,[5],-4%
same,inhibition at 10 µM,[6],-3%
same,inhibition at 10 µM,[7],4%
same,% Inhibition of Control Specific Binding,[8]; 10 μM,74.9%
same,inhibition at 10 µM,[8]; [45],75%
same,inhibition at 10 µM,[9],24%
same,inhibition at 10 µM,[10],11%
same,% Inhibition of Control Specific Binding,[11],71% and 70.6%
same,inhibition at 10 µM,[12],1%
same,inhibition at 10 µM,[13],-3%
same,inhibition at 10 µM,[14],21%
same,inhibition at 10 µM,[15],15%
same,inhibition at 10 µM,[16],4%
same,% of specific inhibition,[17],-15%
same,% of specific inhibition,[18],2%
same,% of specific inhibition,[19]; first unspecified Ca2+ channel entry,-4%
same,% of specific inhibition,[19]; second unspecified Ca2+ channel entry,-6%
same,inhibition at 10 µM,[20],-10%
same,inhibition at 10 µM,[21],2%
same,inhibition at 10 µM,[22],-10%
same,inhibition at 10 µM,[23],-5%
same,inhibition at 10 µM,[24],-37%
same,inhibition at 10 µM,[25],-6%
same,inhibition at 10 µM,[26],-2%
same,inhibition at 10 µM,[27],35%
same,% Inhibition of Control Specific Binding,[28],86%
same,inhibition at 10 µM,[29],5%
same,inhibition at 10 µM,[30],11%
same,inhibition at 10 µM,[31],-2%
same,% of specific inhibition,[32],11%
same,inhibition at 10 µM,[33],-20%
same,% of specific inhibition,[34],-3%
same,% of specific inhibition,[35],4%
same,inhibition at 10 µM,[36],-9%
same,inhibition at 10 µM,[37],-13%
same,inhibition at 10 µM,[38],8%
same,inhibition at 10 µM,[39],3%
same,% of specific inhibition,[40],-1%
same,inhibition at 10 µM,[41],-1%
same,inhibition at 10 µM,[42],-2%
same,inhibition at 10 µM,[43],2%
same,inhibition at 10 µM,[44],-2%

# Source: article PMC8398766, “Do Small Molecules Activate the TrkB Receptor in the Same Manner as BDNF? Limitations of Published TrkB Low Molecular Agonists and Screening for Novel TrkB Orthosteric Agonists” (Pharmaceuticals, 2021)
